Reference: patent publication US5684151A, “1-arylsulphonyl, arylcarbonyl and 1-arylphosphonyl-3-phenyl-1,4,5,6-tetrahydropyridazines” (priority 1995, dated 1997)
Read-outs that look alike come from different tables or passages of the source.

Legend:
[1] = molecular target: T1, progestin receptor from rabbit uterus (Oryctolagus cuniculus, UniProt P06186); assay: Progestin receptor binding (3H-R5020 displacement); settings: rabbit uterine cytosol, 4° C., 18 h, read-out: IC50: Binding affinity for the progestin receptor from rabbit uterus
T1 construct: Cytosolic progestin receptor were obtained by mixing rabbit uterine tissue with a Tris buffer; from tissue; host or cells: rabbit uterus cytosol
Experimental: A progestin initiates a biological response by first binding to a progestin receptor. Affinity for progestin receptors was determined by measuring the ability of compounds to displace a progestin radioligand from those receptors in vitro. Cytosolic progestin receptor were obtained by mixing rabbit uterine tissue with a Tris buffer [0.1M Tris-Hcl, 1 mM Na2 EDTA, 1 mM dithiothreotol, 1 mM sodium molybdate, 1% glycerol, pH 7.4]. The tissue/buffer mixture was homogenized under ice-cold conditions. The homogenate was then centrifuged and the supernatant (cytosol preparation) was decanted and stored at -70° C. and thawed prior to use. The competitive binding assay was performed by mixing ^3 H-R5020, a progestin radioligand, with cytosol preparation and various concentrations of test compounds (prepared in DMSO with a final 5% DMSO concentration). This mixture was then incubated at 4° C. for about 18 hours. Non-specific binding was determined using an unlabelled ligand in excess. After the incubation period, the radioligand bound to receptor was separated from free radioligand using dextran-coated charcoal. The amount of bound radioligand was then determined by liquid scintillation counting. The data were expressed as the concentration of test compound that displaced 50% of the radioligand from the receptor (IC50)
Aspects of the application used in this procedure are described in the following: J. L. McGuire et al., Biochemistry 13, 319, 1974.

[2] = test system: mouse (MC3T3-E1) and human (TE-85) osteoblast-line cells; format: cell-based
Description: Compounds of the present invention have utility to treat osteoporosis through enhancement of bone calcification rather than traditional approaches which generally involve inhibition of bone degeneration or resorption. The compounds of the present invention have been evaluated as stimulators of proliferation of osteoblast cell and chick calivaria bone organ culture which is predictive of enhancement of bone mass and bone formation in vivo.
The action of select compounds to stimulate osteoblast growth was measured in culture by estimating the rate of DNA synthesis by the rate of ^3 H-thymidine incorporation into DNA. Only cells undergoing mitosis synthesized new DNA and thus only these cells incorporated the radiolabelled DNA-specific thymidine. The stimulation of the proliferation and differentiation of bone-forming cells, osteoblasts, was a prerequisite for an increase in bone formation and bone mass. The ability of agents to increase osteoblast proliferation and differentiation can be predicted by their action on cultured osteoblast-line cells in vitro. In this test, mouse (MC3T3-E1) and human (TE-85) osteoblast-line cells (American Type Tissue Culture Collection, #CRL 1543, Rockville, Md. cloned by Sudo et al., Koriyama, Japan) were cultured in vitro and the effect of various agents were tested on osteoblast cell proliferation. Cells were harvested from large culture flasks where they were allowed to grow to near confluency using trypsin. The cells were plated into 96 well culture plates, 1600 cells in 100 μL per well in Dulbencos Modified Eagle's Medium (DMEM) with 25 mM HEPES buffer, L-glutamine (584 mg/L); D-glucose (4.5 g/L) supplemented with fetal bovine sera (10%); penicillin (100 units/mL) and streptomycin (100 mcg/mL); sodium pyruvate (10 μM final concentration). The cells were allowed to plate overnight in DMEM containing 10% fetal bovine sera at 37° C. in an atmosphere of 5% CO2/95% air. Following their placement into 96 well culture plates all the osteoblast-line cells, either the MC3T3-E1 or the TE-85 cell lines, were allowed an additional 24 hours preincubation period in media containing only 0.1% fetal bovine sera.
Twenty hours later, a 20 μL aliquot of media containing 0.4 μCi of ^3 H-thymidine was added to each culture well. The cells were then incubated an additional 4 hours. The incubation was terminated by aspirating the media and washing with HBSS (Hank's Balanced Salt Solution). The cells were then treated with 100 μL of 0.5% trypsin and 5.3 mM EDTA for 30 minutes at room temperature. The cells were then aspirated onto glass fiber filter and washed with water. The radioactivity on the filters was quantified by liquid scintillation spectroscopy. The rate of ^3 H-thymidine incorporation into DNA was then utilized as an index of cell proliferation. The results are shown in Table 13 expressed as % times control where the control is 100%. […]

T1 sequence (P06186 whole entry): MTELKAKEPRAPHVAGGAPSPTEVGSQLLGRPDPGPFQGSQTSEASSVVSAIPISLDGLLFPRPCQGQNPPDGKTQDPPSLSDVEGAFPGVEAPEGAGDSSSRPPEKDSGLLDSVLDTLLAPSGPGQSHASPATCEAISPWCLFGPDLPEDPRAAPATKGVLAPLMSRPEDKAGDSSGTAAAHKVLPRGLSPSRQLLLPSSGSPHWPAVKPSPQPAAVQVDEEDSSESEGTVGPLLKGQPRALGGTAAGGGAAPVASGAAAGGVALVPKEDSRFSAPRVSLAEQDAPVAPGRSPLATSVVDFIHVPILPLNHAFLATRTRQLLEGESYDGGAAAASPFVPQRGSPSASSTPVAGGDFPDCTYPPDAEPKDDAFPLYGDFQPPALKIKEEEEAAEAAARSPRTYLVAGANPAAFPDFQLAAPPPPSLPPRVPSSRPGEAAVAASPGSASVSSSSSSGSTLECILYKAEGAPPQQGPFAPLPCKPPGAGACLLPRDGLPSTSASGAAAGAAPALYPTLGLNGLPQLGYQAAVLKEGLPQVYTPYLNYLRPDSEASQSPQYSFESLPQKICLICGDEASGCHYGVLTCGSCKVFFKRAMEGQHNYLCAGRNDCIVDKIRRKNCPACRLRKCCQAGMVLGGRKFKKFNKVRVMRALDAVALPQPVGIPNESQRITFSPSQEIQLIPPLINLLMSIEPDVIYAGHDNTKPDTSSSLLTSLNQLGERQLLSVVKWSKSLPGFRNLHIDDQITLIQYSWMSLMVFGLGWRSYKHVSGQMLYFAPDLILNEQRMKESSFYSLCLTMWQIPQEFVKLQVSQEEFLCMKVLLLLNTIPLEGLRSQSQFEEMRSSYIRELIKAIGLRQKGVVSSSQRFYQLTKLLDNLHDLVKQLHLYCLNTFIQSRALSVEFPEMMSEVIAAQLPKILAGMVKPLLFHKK

| SMILES | IC50 [1] [nM] | also measured |
| --- | --- | --- |
| Cc1ccc(S(=O)(=O)N2CCCC(c3ccc(Br)cc3)=N2)cc1 [Compound 101] | 195 | – |
| O=S(=O)(c1ccc(C(F)(F)F)cc1)N1CCCC(c2ccccc2)=N1 [Compound 61] | 435 | – |
| O=[N+]([O-])c1cc(S(=O)(=O)N2CCCC(c3ccccc3)=N2)ccc1Cl [Compound 58] | 444 | – |
| CCCCc1ccc(C2=NN(S(=O)(=O)c3ccc(CCCC)cc3)CCC2)cc1 [Compound 75] | 10000 | – |
| O=S(=O)(c1ccc(Cl)cc1)N1CCCC(c2ccccc2)=N1 [Compound 48] | 266 | – |
| O=S(=O)(c1cccc(C(F)(F)F)c1)N1CCCC(c2ccc(Cl)c(Cl)c2)=N1 [Compound 98] | 2.5 | – |
| Cc1ccc(/C=C/S(=O)(=O)N2CCCC(c3ccc4ccccc4c3)=N2)cc1 [Compound 175] | 6.2 | – |
| Cc1ccc(S(=O)(=O)N2CCCC(c3cccc(Cl)c3)=N2)cc1 [Compound 92] | 23.9 | – |
| CN(C)c1ccc(C2=NN(S(=O)(=O)c3ccc(Br)cc3)CCC2)cc1 [Compound 213] | 326 | – |
| Cc1ccc(C(=O)N2CCCC(c3ccc(Cl)cc3)=N2)cc1 [Compound 146, 1-(4-Methylbenzoyl)-3-(4-chlorophenyl)-1,4,5,6-tetrahydropyridazine] | 1000 | – |
| O=[N+]([O-])c1cccc(S(=O)(=O)N2CCCC(c3ccc(Cl)c(C(F)(F)F)c3)=N2)c1 [Compound 127] | 4.04 | – |
| COC(=O)CCCOc1ccc(Br)cc1S(=O)(=O)N1CCCC(c2ccc(Cl)c(Cl)c2)=N1 [Compound 136, 3-(3,4-dichlorophenyl)-1-(2-(3-carbomethoxypropxy)-5-bromobenzenesulphonyl)-1,4,5,6-tetrahydropyridazine] | 70 | – |
| O=S(=O)(c1ccccc1)N1CCCC(c2ccc3ccccc3c2)=N1 [Compound 131] | 17.4 | – |
| O=S(=O)(c1cc(Cl)ccc1Cl)N1CCCC(c2ccc(Br)cc2)=N1 [Compound 102] | 9 | – |
| O=S(=O)(c1ccc(F)cc1)N1CCCC(c2ccc(Cl)cc2)=N1 [Compound 17] | 48 | – |
| O=S(=O)(c1cccc(C(F)(F)F)c1)N1CCCC(c2ccc3ccccc3c2)=N1 [Compound 130] | 2.31 | – |
| O=S(=O)(c1cccc(C(F)(F)F)c1)N1CCCC(c2ccc(Cl)c(C(F)(F)F)c2)=N1 [Compound 126] | 7.14 | – |
| CN(C)c1ccc(C2=NN(S(=O)(=O)c3ccc(I)cc3)CCC2)cc1 [Compound 209, 1-(4-Iodobenzenesulfonyl)-3-(4-dimethylaminophenyl)-1,4,5,6-tetrahydropyridazine] | 117 | – |
| O=S(=O)(c1cc(Cl)c(Cl)cc1Cl)N1CCCC(c2ccc(Cl)c(Cl)c2)=N1 [Compound 107] | 7.45 | – |
| O=S(=O)(c1ccccc1)N1CCCC(c2ccc(Br)cc2)=N1 [Compound 103] | 149 | – |
| COC(=O)c1ccccc1S(=O)(=O)N1CCCC(c2ccc(Cl)cc2)=N1 [Compound 29] | 244 | – |
| CC1CC(c2ccccc2)=NN(S(=O)(=O)c2ccc(Br)cc2)C1 (stereo not shown) [Compound 142] | 1620 | – |
| O=S(=O)(c1ccc(Cl)cc1)N1CCCC(c2ccc(Br)cc2)=N1 [Compound 99] | 21 | – |
| O=S(=O)(/C=C/c1ccccc1)N1CCCC(c2ccc(Cl)c(C(F)(F)F)c2)=N1 [Compound 276] | 53.9 | – |
| O=[N+]([O-])c1ccccc1S(=O)(=O)N1CCCC(c2ccc(Cl)cc2)=N1 [Compound 27] | 65 | – |

| SMILES | IC50 [1] [nM] | also measured |
| --- | --- | --- |
| O=S(=O)(c1ccc(I)cc1)N1CCC(Br)(Br)C(c2ccc(Cl)c(C(F)(F)F)c2)=N1 [Compound 162, 4,4-Dibromo-3-(4-chloro-3-trifluoromethylphenyl)-1-(4-iodobenzenesulfonyl)-1,4,5,6-tetrahydropyridazine] | 3 | – |
| O=S(=O)(c1cc(Cl)ccc1Cl)N1CCCC(c2ccc3ccccc3c2)=N1 [Compound 118] | 5.56 | – |
| CN1C(=O)CSc2cc(C3=NN(S(=O)(=O)c4ccc(I)cc4)CCC3)ccc21 [Compound 138] | 341 | – |
| O=S(=O)(c1ccc(I)cc1)N1CCCC(c2ccc3c(c2)oc2ccccc23)=N1 [Compound 145, 3-(Dibenzofuran-3-yl)-1-(4-iodobenzenesulfonyl)-1,4,5,6-tetrahydropyradazine] | 100 | – |
| O=S(=O)(c1ccc(Cl)cc1)N1CCCC(c2ccc3ccccc3c2)=N1 [Compound 117] | 4.97 | – |
| O=S(=O)(c1ccc2c(c1)CCCC2)N1CCCC(c2ccc(Cl)c(Cl)c2)=N1 [Compound 114] | 6.5 | – |
| O=S(=O)(c1ccc(Cl)c(Cl)c1)N1CCCC(c2ccc(Cl)cc2)=N1 [Compound 30] | 22 | – |
| CCCCc1ccc(S(=O)(=O)N2CCCC(c3ccccc3)=N2)cc1 [Compound 55] | 21.9 | – |
| COC(=O)c1ccc(S(=O)(=O)N2CCCC(c3ccc(Cl)c(Cl)c3)=N2)cc1 [Compound 273, 3-(3,4-Dichlorophenyl)-1-(4-carbomethoxybenzesulfonyl)-1,4,5,6-tetrahydropyridazine] | 3.4 | – |
| CCCCc1ccc(C2=NN(S(=O)(=O)c3cccc([N+](=O)[O-])c3)CCC2)cc1 [Compound 70] | 10000 | – |
| O=S(=O)(c1ccc(Br)cc1)N1CCCC(c2ccc(Br)cc2)=N1 [Compound 100] | 23 | – |
| O=S(=O)(c1ccccc1)N1CCCC(c2ccccc2)=N1 [Compound 66] | 375 | – |
| O=S(=O)(c1ccccc1)N1CCCC(c2ccc(Cl)cc2)=N1 [Compound 37] | 12.9 | – |
| O=S(=O)(c1ccc(I)cc1)N1CCCC(c2cccc(Cl)c2)=N1 [Compound 96] | 12.1 | – |
| O=S(=O)(c1cc(Cl)ccc1Cl)N1CCCC(c2ccccc2)=N1 [Compound 52] | 42 | – |
| O=S(=O)(c1ccc(C(F)(F)C(F)(F)F)cc1)N1CCCC(c2ccc(Cl)c(Cl)c2)=N1 [Compound 272, 3-(3,4-Dichlorophenyl)-1-(4-pentafluoroethylbenzenesulfonyl)-1,4,5,6-tetrahydropyridazine] | 329 | – |
| O=S(=O)(c1cc(Cl)ccc1Cl)N1CCCC(c2cccc(Cl)c2)=N1 [Compound 91] | 2.39 | – |
| CC1CC(c2ccccc2)=NN(S(=O)(=O)c2cccc(C(F)(F)F)c2)C1 (stereo not shown) [Compound 141] | 396 | – |
| O=S(=O)(c1ccc(I)cc1)N1CCCC(c2ccccc2)=N1 [Compound 50] | 316 | – |
| O=S(=O)(c1ccc(C(F)(F)F)cc1)N1CCCC(c2ccc(Cl)cc2)=N1 [Compound 36] | 11.5 | – |
| O=S(=O)(c1ccc(Br)cc1)N1CCCC(c2ccccc2)=N1 [Compound 49] | 127 | – |
| COC(=O)c1ccccc1S(=O)(=O)N1CCCC(c2ccc(F)cc2)=N1 [Compound 26] | 451 | – |
| CCCCc1ccc(S(=O)(=O)N2CCCC(c3ccc(Cl)c(C(F)(F)F)c3)=N2)cc1 [Compound 116] | 8.77 | – |
| O=S(=O)(/C=C/c1ccc(-c2ccccc2)cc1)N1CCCC(c2ccc(Cl)c(Cl)c2)=N1 [Compound 168] | – | Osteoblast Cell Proliferation, 3H-thymidine incorporation vs control (100%) ([2]; 10^-6): 67%; Osteoblast Cell Proliferation, 3H-thymidine incorporation vs control (100%) ([2]; 10^-7): 82%; Osteoblast Cell Proliferation, 3H-thymidine incorporation vs control (100%) ([2]; 10^-8): 82%; Osteoblast Cell Proliferation, 3H-thymidine incorporation vs control (100%) ([2]; 10^-9): 76%; Osteoblast Cell Proliferation, 3H-thymidine incorporation vs control (100%) ([2]; 10^-10): 109% |
| CCOP(=O)(c1ccccc1)N1CCCC(c2ccc(F)cc2)=N1 (stereo not shown) [Compound 259] | – | Osteoblast Cell Proliferation, 3H-thymidine incorporation vs control (100%) ([2]; 10^-6): 116%; Osteoblast Cell Proliferation, 3H-thymidine incorporation vs control (100%) ([2]; 10^-7): 96%; Osteoblast Cell Proliferation, 3H-thymidine incorporation vs control (100%) ([2]; 10^-8): 102%; Osteoblast Cell Proliferation, 3H-thymidine incorporation vs control (100%) ([2]; 10^-9): 121%; Osteoblast Cell Proliferation, 3H-thymidine incorporation vs control (100%) ([2]; 10^-10): 106% |
